Source: patent US11492354B2, “Indazole compounds and uses thereof” (Incyte Corporation, priority 2018, dated 2022)

Target: HPK1 (Homo sapiens (Human), UniProt Q92918)
Experiment: HPK1 Kinase Binding Assay
Details: LanthaScreen tracer 222 binding, active HPK1, 1 h at 25° C.
Method: A stock solution of 1 mM test compound was prepared in DMSO. The compound plate was prepared by 3-fold and 11-point serial dilutions. 0.1 μL of the compound in DMSO was transferred from the compound plate to the white 384 well polystyrene plates. The assay buffer contained 50 mM HEPES, pH 7.5, 0.01% Tween-20, 5 mM MgCl2, 0.01% BSA, and 5 mM DTT. 5 μL of 4 nM active HPK1 (SignalChem M23-11G) prepared in the buffer was added to the plate. The enzyme concentration given was based on the given stock concentration reported by the vender. […] After one hour incubation at 25° C., the plates were read on a PHERAstar FS plate reader (BMG Labtech). Ki values were determined.

Sequence of HPK1 (Q92918 1-346 limits assumed): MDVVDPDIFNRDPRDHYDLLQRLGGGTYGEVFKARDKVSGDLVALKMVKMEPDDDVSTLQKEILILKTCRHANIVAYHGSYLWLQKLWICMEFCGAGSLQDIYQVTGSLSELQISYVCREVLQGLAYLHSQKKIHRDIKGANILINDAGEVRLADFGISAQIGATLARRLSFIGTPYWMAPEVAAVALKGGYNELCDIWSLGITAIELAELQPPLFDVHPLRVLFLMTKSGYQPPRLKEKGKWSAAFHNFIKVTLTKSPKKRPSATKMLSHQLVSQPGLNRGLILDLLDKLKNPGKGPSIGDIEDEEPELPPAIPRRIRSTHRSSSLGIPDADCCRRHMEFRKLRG

Ki: < 100 nM
SMILES: COc1cccc(F)c1-c1nccc(C(=O)Nc2cc(F)c3nn(C)cc3c2N2CCC[C@@H]2CN)n1 (single isomer, unassigned; peak 1) [10, Peak 1]
